Experimental data: patent US10966951B2, “Compositions and methods for lowering triglycerides in a subject having reduced kidney function” (Amarin Pharmaceuticals Ireland Limited, priority 2017, dated 2021)

What was measured:
Format in all cases: in vivo, human
[1] = system: subjects with Age-Associated Memory Impairment; assay: Safety and tolerability, 6-week AAMI study (Example 2)
Experimental: Ninety-four subjects were randomized into one of six groups: 1 g E-EPA daily (n=23), 2 g E-EPA daily (n=24), 4 g E-EPA daily (n=24), 1 g placebo daily (n=7), 2 g placebo daily (n=8), and 4 g placebo daily (n=8).
All randomized subjects that received at least 1 dose of study medication were included in the Safety Population.
Safety evaluations were based on the safety population. Safety and tolerability were assessed in terms of AEs, vital signs, 12-lead ECG, clinical laboratory data, medical history, and study drug compliance. Safety and tolerability data were presented by treatment group.

[2] = system: patients with reduced kidney function (eGFR<90 mL/min/1.73 m^2) and diabetes mellitus; assay: Post-hoc ANCHOR analysis, reduced kidney function and diabetes mellitus (Example 5); conditions: 4 g/day
Experimental: CVD-related (e.g., atherogenic) parameters were analyzed in a post-hoc study of 198 patients from the multi-center, placebo-controlled, randomized double-blind, 12-week study described in Example 1. These 198 patients have reduced kidney function (e.g., eGFR<90 mL/min/1.73 m^2 for ≥3 months) and diabetes mellitus.
98 patients were randomized to E-EPA and 100 patients were randomized to placebo. In total, atherogenic parameters were analyzed in all 198 patients, 56% of which were male and 97% of which were white. The mean age of the 198 patients was 63 years old.
The primary objective of this post-hoc study was to determine if and how 4 g of daily of >96% E-EPA, compared to placebo, affects patients with reduced kidney function, diabetes mellitus, and high triglyceride levels. The secondary objective was to determine if and how 4 g daily >96% E-EPA, compared to placebo, affected CVD-related parameters in patients having a high risk for CVD and fasting TG levels 200 mg/dL and <500 mg/dL, despite treatment to LDL-C goal on statin therapy. These CVD-parameters include lipid levels, lipoprotein levels, and inflammatory markers, such as TC, LDL-C, HDL-C, vLDL-C, vLDL-TG, RLP-C, non-HDL-C, Apo B, Apo C-III, Lp-PLA, hsCRP, and ox-LDL, and in plasma and RBC EPA concentration. CVD-parameters were analyzed for median difference in percent change from baseline to week 12 in subjects receiving 4 g/day of E-EPA and those receiving the placebo.
The median difference in lipid/lipoprotein, apolipoprotein, and inflammatory parameters were determined from baseline to week 12 for 4/g day of E-EPA compared to placebo.

[3] = system: patients with chronic kidney disease (eGFR<60 mL/min/1.73 m^2); assay: Post-hoc ANCHOR analysis, chronic kidney disease: lipid, lipoprotein, oxidation and inflammation parameters (Example 7); conditions: CKD
Experimental: (§1) CVD-related (e.g., atherogenic) parameters were analyzed in a post-hoc study of 55 patients from the multi-center, placebo-controlled, randomized double-blind, 12-week study described in Example 1. These 55 patients have chronic kidney disease (e.g., eGFR<60 mL/min/1.73 m^2 for ≥3 months). There was no lower limit of eGFR specified.
(§2) 19 patients were randomized to E-EPA and 36 patients were randomized to placebo. One patient in each group discontinued and was excluded from efficacy analyses (but not safety analyses). EPA levels in plasma and RBC were measured in 23 of the 55 patients. These measurements were taken on 7 of the patients randomized to E-EPA and on 16 of the patients that were randomized to the placebo.
The primary objective of this post-hoc study, which is based on an intention to treat, was to determine if and how 4 g daily of >96% E-EPA affects patients with stage 3 chronic kidney disease (e.g., eGFR<60 mL/min/1.73 m^2 for ≥3 months). The secondary objective was to determine if and how 4 g daily of >96% E-EPA, compared to a placebo, affected CVD-related parameters in patients with a high risk of CVD and fasting TG levels ≥[…] and <500 mg/dL, despite LDL-C goal on statin therapy. These CVD-parameters include lipid levels, lipoprotein levels, and inflammatory markers, such as TC, LDL-C, HDL-C, vLDL-C, vLDL-TG, RLP-C, non-HDL-C, Apo B, Apo C-III, Lp-PLA, hsCRP, and ox-LDL, and in plasma and RBC EPA concentration. CVD-parameters were analyzed for median difference in percent change from baseline to week 12 in subjects receiving 4 g/day of E-EPA and those receiving the placebo.
(§3) The median difference in percent change from baseline between 4 g/day of E-EPA and placebo for the primary efficacy variable and additional assessments were estimated using the Hodges-Lehmann method (P values from the Wilcoxon rank-sum test for treatment comparisons). Using the Hodges-Lehmann method, departures from normal distribution were observed; for normally distributed parameters, an analysis of covariance model was used with least squares (LS) means and standard errors (SE). Missing values were imputed using the last-observation-carried-forward method. For all post hoc analyses, the alpha for statistical significance was 0.05.

[4] = system: patients with chronic kidney disease (eGFR<60 mL/min/1.73 m^2); assay: Renal parameters and safety in ANCHOR patients with CKD (Example 7)
Experimental: as §1, §2, §3

SMILES: CC/C=C\C/C=C\C/C=C\C/C=C\C/C=C\CCCC(=O)OCC [E-EPA, ethyl eicosapentaenoate]
- subjects with nausea Possibly Related to the study drug ([1]; 1 g cohort): two
- nausea Probably Related to the study drug ([1]; 1 g, one subject): experienced nausea that was Probably Related to the study drug
- subjects with nausea Possibly Related to the study drug ([1]; 2 g cohort): one
- SAE reported ([1]; 2 g treatment group): One SAE
- subjects discontinued due to TEAEs ([1]; 2 g treatment group): 2 subjects
- relatedness of the SAE (worsening epigastric chest pain) ([1]; 2 g, one subject): unrelated to the study drug
- subjects with nausea Possibly Related to the study drug ([1]; 4 g cohort): two
- diarrhea Probably Related to the study drug ([1]; 4 g, one subject): experienced diarrhea that was Probably Related to the study drug
- TEAEs Definitely Related to the study drug ([1]; all groups): No TEAEs were Definitely Related
- albumin after 12 weeks ([2]; after 12 weeks): 4.5 g/dL
- serum creatinine after 12 weeks ([2]; after 12 weeks): 0.9 mg/dL
- albumin before treatment ([2]; before the 12 weeks): 4.5 g/dL
- eGFR before treatment ([2]; before the 12 weeks): 75.4 mL/min/1.73 m^2
- serum creatinine before treatment ([2]; before the 12 weeks): 0.9 mg/dL
- VLDL-C Median Difference in % Change From Baseline vs Placebo ([3]; 4 g/day vs placebo, week 12): −26.7%
- hsCRP Median Difference in % Change From Baseline vs Placebo ([3]; 4 g/day vs placebo, week 12, listed as Icosapent Ethyl): −25.0%
- Apo B Baseline ([3]; 4 g/day, baseline): 87.0 mg/dL
- HDL-C Baseline ([3]; 4 g/day, baseline): 35.0 mg/dL
- LDL-C Baseline ([3]; 4 g/day, baseline): 76.0 mg/dL
- VLDL-C Baseline ([3]; 4 g/day, baseline): 42.0 mg/dL
- hsCRP Baseline ([3]; 4 g/day, baseline): 1.9 mg/L
- RLP-C Baseline ([3]; 4 g/day, baseline, n = 9): 17.0 mg/dL
- Apo B Change From Baseline, % ([3]; 4 g/day, week 12): −7.2%
- Apo B End of Treatment ([3]; 4 g/day, week 12): 83.0 mg/dL
- Apo C-III Change From Baseline, % ([3]; 4 g/day, week 12): −7.3%
- HDL-C Change From Baseline, % ([3]; 4 g/day, week 12): 0.9%
- LDL-C Change From Baseline, % ([3]; 4 g/day, week 12): −6.5%
- Lp-PLA2 End of Treatment ([3]; 4 g/day, week 12): 150.0 ng/mL
- Non-HDL-C Change From Baseline, % ([3]; 4 g/day, week 12): −6.4%
- Ox-LDL Change From Baseline, % ([3]; 4 g/day, week 12): −9.5%
- RLP-C End of Treatment ([3]; 4 g/day, week 12): 10.0 mg/dL
- TC Change From Baseline, % ([3]; 4 g/day, week 12): −8.1%
- hsCRP Change From Baseline, % ([3]; 4 g/day, week 12): −16.9%
- hsCRP End of Treatment ([3]; 4 g/day, week 12): 2.1 mg/L
- nausea, nasopharyngitis, and arthralgia ([4]; 4 g/day): not reported by any patients
- eGFR median difference in change from baseline compared with placebo ([4]; 4 g/day vs placebo, P=0.1983): −7.8%
- serum creatinine median difference in change from baseline compared with placebo ([4]; 4 g/day vs placebo, P=0.1983): 6.5%
- BUN median difference in change from baseline compared with placebo ([4]; 4 g/day vs placebo, P=0.5291): 5.5%
- BUN median difference in change from baseline compared with placebo ([4]; 4 g/day vs placebo, P=0.5471): 1.0 mg/dL
- patients reporting diarrhea ([4]; 4 g/day, 2 patients): 10.5%
- patients reporting TEAE ([4]; 4 g/day, 11 of 19 patients): 57.9%
- serum albumin change from baseline ([4]; 4 g/day, 12-week study): no significant median changes from baseline
- BUN, median (IQR), baseline ([4]; 4 g/day, baseline): 24.5 (12.0) mg/dL
- eGFR, median (IQR), baseline ([4]; 4 g/day, baseline): 55.0 (13.8) mL/min/1.73 m^2
- serum creatinine, median (IQR), baseline ([4]; 4 g/day, baseline): 1.2 (0.3) mg/dL
- changes in serum creatinine, blood urea nitrogen (BUN), or eGFR from baseline to week 12 ([4]; 4 g/day, compared to placebo control): did not produce significant changes
- BUN, median (IQR), week 12 ([4]; 4 g/day, week 12): 22.5 (11.0) mg/dL
- eGFR, median (IQR), week 12 ([4]; 4 g/day, week 12): 56.0 (12.9) mL/min/1.73 m^2
- serum creatinine, median (IQR), week 12 ([4]; 4 g/day, week 12): 1.2 (0.4) mg/dL
